Reference: ChEMBL document CHEMBL1201861, “Genomics of Drug Sensitity in Cancer screening data, Wellcome Trust Sanger Institute”

Experiments:
Assay in all cases: cells
Assay type in all cases: functional, cell-based, Homo sapiens
[1] = system: SBC-1; conditions: Homo sapiens, SBC-1;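 note: cell viability assay measuring growth inhibition of the SBC-1 cell line, IC50 being the concentration that halves growth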
Description: SANGER: Inhibition of human SBC-1 cell growth in a cell viability assay.

[2] = system: P30-OHK; conditions: Homo sapiens, P30-OHK;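 note: growth inhibition of the P30-OHK cell line, read out with a cell viability assay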
Description: SANGER: Inhibition of human P30-OHK cell growth in a cell viability assay.

[3] = system: LC-2-ad; conditions: Homo sapiens, LC-2-ad;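 note: growth inhibition of human LC-2-ad cells, read out with a cell viability assay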
Description: SANGER: Inhibition of human LC-2-ad cell growth in a cell viability assay.

[4] = system: NMC-G1; conditions: Homo sapiens, NMC-G1;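 note: growth inhibition of the NMC-G1 cell line, measured with a cell viability read-out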
Description: SANGER: Inhibition of human NMC-G1 cell growth in a cell viability assay.

[5] = system: KALS-1; conditions: Homo sapiens, KALS-1;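 note: growth inhibition of KALS-1 cells, determined with a cell viability assay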
Description: SANGER: Inhibition of human KALS-1 cell growth in a cell viability assay.

[6] = system: NB10; conditions: Homo sapiens, NB10;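 note: growth inhibition of NB10 cells, read out by a cell viability assay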
Description: SANGER: Inhibition of human NB10 cell growth in a cell viability assay.

[7] = system: SW872; conditions: Homo sapiens, SW872;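 note: growth inhibition of SW872 cells, read out by a viability assay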
Description: SANGER: Inhibition of human SW872 cell growth in a cell viability assay.

[8] = system: KE-37; conditions: Homo sapiens, KE-37;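 note: growth inhibition of KE-37 cells, read out with a cell viability assay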
Description: SANGER: Inhibition of human KE-37 cell growth in a cell viability assay.

[9] = system: LS-411N; conditions: Homo sapiens, LS-411N
[10] = system: GI-ME-N; conditions: Homo sapiens, GI-ME-N;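 note: growth inhibition of human GI-ME-N cells, read out with a cell viability assay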
Description: SANGER: Inhibition of human GI-ME-N cell growth in a cell viability assay.

[11] = system: KGN; conditions: Homo sapiens, KGN;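 note: growth inhibition of KGN cells, read out with a cell viability assay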
Description: SANGER: Inhibition of human KGN cell growth in a cell viability assay.

[12] = system: TE-10; conditions: Homo sapiens, TE-10;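 note: growth inhibition of TE-10 cells, measured by a cell viability assay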
Description: SANGER: Inhibition of human TE-10 cell growth in a cell viability assay.

[13] = system: MZ2-MEL; conditions: Homo sapiens, MZ2-MEL;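 note: growth inhibition of MZ2-MEL cells read out with a cell viability assay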
Description: SANGER: Inhibition of human MZ2-MEL cell growth in a cell viability assay.

[14] = system: CW-2; conditions: Homo sapiens, CW-2;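 note: growth inhibition of CW-2 cells, read out by a cell viability assay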
Description: SANGER: Inhibition of human CW-2 cell growth in a cell viability assay.

[15] = system: NCI-H1581; conditions: Homo sapiens, NCI-H1581;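 note: cell growth inhibition read out by a viability assay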
Description: SANGER: Inhibition of human NCI-H1581 cell growth in a cell viability assay.

[16] = system: KY821; conditions: Homo sapiens, KY821;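 note: growth inhibition of human KY821 cells, read out by a cell viability assay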
Description: SANGER: Inhibition of human KY821 cell growth in a cell viability assay.

[17] = system: LS-513; conditions: Homo sapiens, LS-513
Description: SANGER: Inhibition of human LS-513 cell growth in a cell viability assay.

[18] = system: JVM-2; conditions: Homo sapiens, JVM-2;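 note: growth inhibition of JVM-2 cells determined by a cell viability assay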
Description: SANGER: Inhibition of human JVM-2 cell growth in a cell viability assay.

[19] = system: ES7; conditions: Homo sapiens, ES7;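 note: growth inhibition of cultured human ES7 cells, read out as cell viability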
Description: SANGER: Inhibition of human ES7 cell growth in a cell viability assay.

[20] = system: MOLT-16; conditions: Homo sapiens, MOLT-16;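 note: growth inhibition of human MOLT-16 cells, read out with a cell viability assay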
Description: SANGER: Inhibition of human MOLT-16 cell growth in a cell viability assay.

[21] = system: LB373-MEL-D; conditions: Homo sapiens, LB373-MEL-D;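 note: growth inhibition of the cell line, read out in a cell viability assay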
Description: SANGER: Inhibition of human LB373-MEL-D cell growth in a cell viability assay.

[22] = system: A101D; conditions: Homo sapiens, A101D;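 note: growth inhibition of the cell line, measured with a viability assay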
Description: SANGER: Inhibition of human A101D cell growth in a cell viability assay.

[23] = system: NEC8; conditions: Homo sapiens, NEC8;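 note: growth inhibition of human NEC8 cells, read out by a cell viability assay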
Description: SANGER: Inhibition of human NEC8 cell growth in a cell viability assay.

[24] = system: TK-10; conditions: Homo sapiens, TK-10;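 note: growth inhibition of TK-10 cells, read out in a cell viability assay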
Description: SANGER: Inhibition of human TK10 cell growth in a cell viability assay.

[25] = system: NCI-H1648; conditions: Homo sapiens, NCI-H1648;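 note: cell viability assay measuring inhibition of NCI-H1648 cell growth, from the Sanger screening data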
Description: SANGER: Inhibition of human NCI-H1648 cell growth in a cell viability assay.

[26] = system: SCH; conditions: Homo sapiens, SCH;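 note: growth inhibition of human SCH cells, read out in a cell viability assay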
Description: SANGER: Inhibition of human SCH cell growth in a cell viability assay.

[27] = system: JVM-3; conditions: Homo sapiens, JVM-3;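 note: growth inhibition of human JVM-3 cells, read out with a cell viability assay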
Description: SANGER: Inhibition of human JVM-3 cell growth in a cell viability assay.

[28] = system: ACN; conditions: Homo sapiens, ACN;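 note: growth inhibition of the human ACN cell line, read out via cell viability testing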
Description: SANGER: Inhibition of human ACN cell growth in a cell viability assay.

[29] = system: EC-GI-10; conditions: Homo sapiens, EC-GI-10
Description: SANGER: Inhibition of human EC-GI-10 cell growth in a cell viability assay.

[30] = system: ES5; conditions: Homo sapiens, ES5;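 note: growth inhibition of human ES5 cells, read out by a cell viability assay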
Description: SANGER: Inhibition of human ES5 cell growth in a cell viability assay.

[31] = system: SW684; conditions: Homo sapiens, SW684;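 note: growth inhibition of human SW684 cells, measured by a cell viability assay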
Description: SANGER: Inhibition of human SW684 cell growth in a cell viability assay.

[32] = system: RPMI-8226; conditions: Homo sapiens, RPMI-8226
Description: SANGER: Inhibition of human RPMI-8226 cell growth in a cell viability assay.

[33] = system: TE-11; conditions: Homo sapiens, TE-11;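 note: growth inhibition of human TE-11 cells, read out by a cell viability assay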
Description: SANGER: Inhibition of human TE-11 cell growth in a cell viability assay.

[34] = system: ES4; conditions: Homo sapiens, ES4;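 note: growth inhibition of human ES4 cells, read out by a cell viability assay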
Description: SANGER: Inhibition of human ES4 cell growth in a cell viability assay.

[35] = system: KARPAS-299; conditions: Homo sapiens, KARPAS-299
Description: SANGER: Inhibition of human KARPAS-299 cell growth in a cell viability assay.

[36] = system: NOS-1; conditions: Homo sapiens, NOS-1;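 note: growth inhibition of the human NOS-1 cell line, read out with a cell viability assay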
Description: SANGER: Inhibition of human NOS-1 cell growth in a cell viability assay.

[37] = system: K562; conditions: Homo sapiens, K562
Description: SANGER: Inhibition of human K-562 cell growth in a cell viability assay.

[38] = system: NOMO-1; conditions: Homo sapiens, NOMO-1;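 note: growth inhibition of human NOMO-1 cells measured by a cell viability assay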
Description: SANGER: Inhibition of human NOMO-1 cell growth in a cell viability assay.

[39] = system: Lu-65; conditions: Homo sapiens, Lu-65;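 note: growth inhibition of Lu-65 cancer cells, read out by a cell viability assay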
Description: SANGER: Inhibition of human LU-65 cell growth in a cell viability assay.

[40] = system: RKO; conditions: Homo sapiens, RKO;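 note: growth inhibition of human RKO cells, read out with a cell viability assay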
Description: SANGER: Inhibition of human RKO cell growth in a cell viability assay.

[41] = system: KARPAS-45; conditions: Homo sapiens, KARPAS-45;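 note: inhibition of cell line growth, read out through a viability assay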
Description: SANGER: Inhibition of human KARPAS-45 cell growth in a cell viability assay.

[42] = system: BT-474; conditions: Homo sapiens, BT-474
Description: SANGER: Inhibition of human BT-474 cell growth in a cell viability assay.

[43] = system: NCI-H446; conditions: Homo sapiens, NCI-H446;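 note: growth inhibition of NCI-H446 cells determined by a cell viability assay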
Description: SANGER: Inhibition of human NCI-H446 cell growth in a cell viability assay.

[44] = system: KG-1; conditions: Homo sapiens, KG-1;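 note: growth inhibition of KG-1 cells, read out by a cell viability assay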
Description: SANGER: Inhibition of human KG-1 cell growth in a cell viability assay.

[45] = system: LB831-BLC; conditions: Homo sapiens, LB831-BLC;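 note: growth inhibition of LB831-BLC cells, read out with a cell viability assay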
Description: SANGER: Inhibition of human LB831-BLC cell growth in a cell viability assay.

[46] = system: PSN1; conditions: Homo sapiens, PSN1;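 note: suppression of growth of human PSN1 cells, read out by a cell viability assay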
Description: SANGER: Inhibition of human PSN1 cell growth in a cell viability assay.

[47] = system: KINGS-1; conditions: Homo sapiens, KINGS-1;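 note: cell viability assay measuring suppression of KINGS-1 cell growth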
Description: SANGER: Inhibition of human KINGS-1 cell growth in a cell viability assay.

[48] = system: ES6; conditions: Homo sapiens, ES6;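 note: growth inhibition of human ES6 cells, read out with a cell viability assay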
Description: SANGER: Inhibition of human ES6 cell growth in a cell viability assay.

[49] = system: NCI-H1650; conditions: Homo sapiens, NCI-H1650;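 note: growth inhibition of human NCI-H1650 cells measured by a cell viability assay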
Description: SANGER: Inhibition of human NCI-H1650 cell growth in a cell viability assay.

Cc1ccc(-c2c(C(=O)CCl)n(CCCO)c3ncnc(N)c23)cc1
IC50 [1]: > 4 µM | IC50 [2]: > 4 µM | IC50 [3]: 2.74 µM | IC50 [4]: > 4 µM | IC50 [5]: > 4 µM | IC50 [6]: > 4 µM | IC50 [7]: > 4 µM | IC50 [8]: > 4 µM | IC50 [9]: > 4 µM | IC50 [10]: 2.52 µM | IC50 [11]: > 4 µM | IC50 [12]: > 4 µM | IC50 [13]: > 4 µM | IC50 [14]: > 4 µM | IC50 [15]: > 4 µM | IC50 [16]: 3.68 µM | IC50 [17]: > 4 µM | IC50 [18]: > 4 µM | IC50 [19]: > 4 µM | IC50 [20]: > 4 µM | IC50 [21]: > 4 µM | IC50 [22]: 3.83 µM | IC50 [23]: > 4 µM | IC50 [24]: 1.95 µM | IC50 [25]: > 4 µM | IC50 [26]: > 4 µM | IC50 [27]: > 4 µM | IC50 [28]: > 4 µM | IC50 [29]: > 4 µM | IC50 [30]: > 4 µM | IC50 [31]: > 4 µM | IC50 [32]: > 4 µM | IC50 [33]: > 4 µM | IC50 [34]: > 4 µM | IC50 [35]: > 4 µM | IC50 [36]: > 4 µM | IC50 [37]: > 4 µM | IC50 [38]: > 4 µM | IC50 [39]: > 4 µM | IC50 [40]: > 4 µM | IC50 [41]: > 4 µM | IC50 [42]: > 4 µM | IC50 [43]: > 4 µM | IC50 [44]: > 4 µM | IC50 [45]: > 4 µM | IC50 [46]: 2.77 µM | IC50 [47]: > 4 µM | IC50 [48]: > 4 µM | IC50 [49]: > 4 µM

COc1cc2ncn(-c3cc(OCc4ccccc4C(F)(F)F)c(C(N)=O)s3)c2cc1OC [GW843682X]
IC50 [1]: > 0.256 µM | IC50 [2]: > 0.256 µM | IC50 [3]: 0.0156 µM | IC50 [4]: 0.206 µM | IC50 [5]: 0.0225 µM | IC50 [6]: > 0.256 µM | IC50 [7]: 0.0277 µM | IC50 [8]: 0.00477 µM | IC50 [9]: 0.008 µM | IC50 [10]: 0.0883 µM | IC50 [11]: 0.0332 µM | IC50 [12]: 0.0126 µM | IC50 [13]: 0.126 µM | IC50 [14]: > 0.256 µM | IC50 [15]: 0.0305 µM | IC50 [16]: 0.0159 µM | IC50 [17]: 0.212 µM | IC50 [18]: > 0.256 µM | IC50 [19]: > 0.256 µM | IC50 [20]: 0.0315 µM | IC50 [21]: 0.149 µM | IC50 [22]: 0.0113 µM | IC50 [23]: 0.0487 µM | IC50 [24]: 0.0909 µM | IC50 [25]: 0.0144 µM | IC50 [26]: > 0.256 µM | IC50 [27]: > 0.256 µM | IC50 [28]: 0.0333 µM | IC50 [29]: > 0.256 µM | IC50 [30]: > 0.256 µM | IC50 [31]: > 0.256 µM | IC50 [32]: 0.0281 µM | IC50 [33]: 0.0107 µM | IC50 [34]: 0.0184 µM | IC50 [35]: 0.0943 µM | IC50 [36]: 0.0166 µM | IC50 [37]: 0.0594 µM | IC50 [38]: > 0.256 µM | IC50 [39]: > 0.256 µM | IC50 [40]: 0.0172 µM | IC50 [41]: 0.00613 µM | IC50 [42]: > 0.256 µM | IC50 [43]: 0.012 µM | IC50 [44]: > 0.256 µM | IC50 [45]: 0.2 µM | IC50 [46]: 0.00583 µM | IC50 [47]: 0.149 µM | IC50 [48]: 0.00619 µM | IC50 [49]: > 0.256 µM

CC(=O)O[C@H]1C(=O)[C@@]2(C)[C@H]([C@H](OC(=O)c3ccccc3)[C@]3(O)C[C@H](OC(=O)[C@H](O)[C@@H](NC(=O)c4ccccc4)c4ccccc4)C(C)=C1C3(C)C)[C@]1(OC(C)=O)CO[C@@H]1C[C@@H]2O [PACLITAXEL]
IC50 [1]: 0.0504 µM | IC50 [2]: > 0.102 µM | IC50 [3]: 0.000317 µM | IC50 [4]: 0.0345 µM | IC50 [5]: 0.00308 µM | IC50 [6]: > 0.102 µM | IC50 [7]: 0.0421 µM | IC50 [8]: 0.0123 µM | IC50 [9]: 0.00717 µM | IC50 [10]: 0.0845 µM | IC50 [11]: 0.00712 µM | IC50 [12]: 0.00154 µM | IC50 [13]: 0.0474 µM | IC50 [14]: > 0.102 µM | IC50 [15]: 0.0495 µM | IC50 [16]: 0.027 µM | IC50 [17]: > 0.102 µM | IC50 [18]: > 0.102 µM | IC50 [19]: > 0.102 µM | IC50 [20]: 0.0215 µM | IC50 [21]: 0.0411 µM | IC50 [22]: 0.0096 µM | IC50 [23]: 0.0529 µM | IC50 [24]: 0.0336 µM | IC50 [25]: 0.00469 µM | IC50 [26]: > 0.102 µM | IC50 [27]: > 0.102 µM | IC50 [28]: 0.00316 µM | IC50 [29]: 0.0726 µM | IC50 [30]: > 0.102 µM | IC50 [31]: > 0.102 µM | IC50 [32]: 0.011 µM | IC50 [33]: 0.00123 µM | IC50 [34]: 0.00449 µM | IC50 [35]: 0.0398 µM | IC50 [36]: 0.0065 µM | IC50 [37]: 0.0152 µM | IC50 [38]: 0.0928 µM | IC50 [39]: > 0.102 µM | IC50 [40]: 0.00298 µM | IC50 [41]: 0.0127 µM | IC50 [42]: > 0.102 µM | IC50 [43]: 0.0211 µM | IC50 [44]: > 0.102 µM | IC50 [45]: 0.0248 µM | IC50 [46]: 0.0013 µM | IC50 [47]: 0.0236 µM | IC50 [48]: 0.0959 µM | IC50 [49]: > 0.102 µM
